According to ChEMBL document CHEMBL1201862, “PubChem BioAssay data set” (2004):
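Dose response: 5 concentrations. Exposure: 48 h. Format: 96-well plates. Endpoint: linear interpolation; highest concentration if not reached. GI50 marks 50% less growth.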 Calls of active or inactive are those of the source. No stated cut-off is given here; in the data, active = GI50 up to about 1.1 µM and inactive = higher.

Key:
Test in all cases: NCI anticancer screen, dose series, 48 h
ACHN = test system: ACHN
CCRF-CEM = test system: CCRF-CEM
COLO 205 = test system: COLO 205
HOP-92 = test system: HOP-92
HT-29 = test system: HT-29
MDA-MB-231 = test system: MDA-MB-231
NCI-H23 = test system: NCI-H23
NCI-H460 = test system: NCI-H460
OVCAR-3 = test system: OVCAR-3
OVCAR-4 = test system: OVCAR-4
OVCAR-5 = test system: OVCAR-5
OVCAR-8 = test system: OVCAR-8
PC-3 = test system: PC-3
RPMI-8226 = test system: RPMI-8226
SF-539 = test system: SF-539
SK-MEL-28 = test system: SK-MEL-28
SN12C = test system: SN12C
SNB-75 = test system: SNB-75
T47D = test system: T47D
UACC-62 = test system: UACC-62

| Structure (SMILES) | GI50 (ACHN) | GI50 (CCRF-CEM) | GI50 (COLO 205) | GI50 (HOP-92) | GI50 (HT-29) | GI50 (MDA-MB-231) | GI50 (NCI-H23) | GI50 (NCI-H460) | GI50 (OVCAR-3) | GI50 (OVCAR-4) | GI50 (OVCAR-5) | GI50 (OVCAR-8) | GI50 (PC-3) | GI50 (RPMI-8226) | GI50 (SF-539) | GI50 (SK-MEL-28) | GI50 (SN12C) | GI50 (SNB-75) | GI50 (T47D) | GI50 (UACC-62) |
| --- | --- | --- | --- | --- | --- | --- | --- | --- | --- | --- | --- | --- | --- | --- | --- | --- | --- | --- | --- | --- |
| CCOC(=O)C(NC(=O)c1ccccc1)(c1ccc(S(=O)(=O)Nc2onc(C)c2C)cc1)C(F)(F)F (centres undefined) | > 100 µM (inactive) | > 100 µM (inactive) | > 100 µM (inactive) | > 100 µM (inactive) | > 100 µM (inactive) | > 100 µM (inactive) | > 100 µM (inactive) | > 100 µM (inactive) | > 100 µM (inactive) | > 100 µM (inactive) | > 100 µM (inactive) | > 100 µM (inactive) | > 100 µM (inactive) | > 100 µM (inactive) | > 100 µM (inactive) | > 100 µM (inactive) | > 100 µM (inactive) | > 100 µM (inactive) | > 100 µM (inactive) | > 100 µM (inactive) |
| COC(=O)C(CCC1C=CN(S(=O)(=O)c2ccc(C)cc2)C1)/N=C/c1ccccc1 (centres undefined) | > 100 µM (inactive) | 1.99 µM (inactive) | 18.2 µM (inactive) | 29.7 µM (inactive) | 30.9 µM (inactive) | 39.6 µM (inactive) | 26.4 µM (inactive) | 44.9 µM (inactive) | 35.9 µM (inactive) | 46.1 µM (inactive) | 60.7 µM (inactive) | 39.5 µM (inactive) | 32.7 µM (inactive) | 28.1 µM (inactive) | 38.6 µM (inactive) | 69.5 µM (inactive) | 35.5 µM (inactive) | 52.5 µM (inactive) | 47.6 µM (inactive) | 32.8 µM (inactive) |
| NCCCN1CCN(CCCNc2ccc3nnn4c5ccccc5c(=O)c2c34)CC1 | 12.4 µM (inactive) | 9.91 µM (inactive) | 4.07 µM (inactive) | 18.8 µM (inactive) | 13.3 µM (inactive) | 13.1 µM (inactive) | 14.8 µM (inactive) | 18.4 µM (inactive) | 37.4 µM (inactive) | 11.8 µM (inactive) | 29.6 µM (inactive) | 20 µM (inactive) | 12.5 µM (inactive) | 21.8 µM (inactive) | 13.9 µM (inactive) | > 100 µM (inactive) | 9.02 µM (inactive) | 17.7 µM (inactive) | 30.2 µM (inactive) | 15.4 µM (inactive) |
| Clc1ccc(CSc2ncnc3c2ncn3C2CCCCO2)cc1 (centres undefined) | 16.1 µM (inactive) | – | 20 µM (inactive) | 24.7 µM (inactive) | 18.8 µM (inactive) | 24.5 µM (inactive) | 17.4 µM (inactive) | 16.9 µM (inactive) | 15.7 µM (inactive) | 25.2 µM (inactive) | 37.4 µM (inactive) | 22.9 µM (inactive) | 25.6 µM (inactive) | 14.3 µM (inactive) | – | 22.8 µM (inactive) | 18.3 µM (inactive) | 20.2 µM (inactive) | 17.4 µM (inactive) | 15.7 µM (inactive) |
| CCCCCCCCCCCCCCCC[N+](C)(C)CCl | 2.66 µM (inactive) | 1.15 µM (inactive) | 1.65 µM (inactive) | 1.17 µM (inactive) | 1.59 µM (inactive) | 2.02 µM (inactive) | 4.19 µM (inactive) | 1.77 µM (inactive) | 3.03 µM (inactive) | 2.86 µM (inactive) | 6.89 µM (inactive) | 2.61 µM (inactive) | 2.17 µM (inactive) | 1.76 µM (inactive) | 2.4 µM (inactive) | 5.19 µM (inactive) | 3.19 µM (inactive) | 1.86 µM (inactive) | 3.57 µM (inactive) | 2.29 µM (inactive) |
| CCN(CC)CC[n+]1ccc2c(C)c3[nH]c4ccc(O)cc4c3c(C)c2c1 | 2.64 µM (inactive) | 1.43 µM (inactive) | 3.18 µM (inactive) | 3.85 µM (inactive) | 8.45 µM (inactive) | 10.6 µM (inactive) | 3.82 µM (inactive) | 0.434 µM (active) | 14.9 µM (inactive) | 3.85 µM (inactive) | 15.9 µM (inactive) | 3.72 µM (inactive) | 7.46 µM (inactive) | 7.31 µM (inactive) | 3.89 µM (inactive) | 7.13 µM (inactive) | 0.414 µM (active) | 1 µM (active) | 2.67 µM (inactive) | 6.56 µM (inactive) |
| C[n+]1c(-c2ccc(/C=N\N3CCN(/N=C/c4ccc(-c5cn6ccsc6[n+]5C)cc4)CC3)cc2)cn2ccsc21 | 65.5 µM (inactive) | 36.7 µM (inactive) | 16.8 µM (inactive) | 42.3 µM (inactive) | 40.8 µM (inactive) | 20.7 µM (inactive) | 30.1 µM (inactive) | 26.7 µM (inactive) | 59.8 µM (inactive) | 28.4 µM (inactive) | > 100 µM (inactive) | 41.7 µM (inactive) | > 100 µM (inactive) | 22.7 µM (inactive) | 30.3 µM (inactive) | – | 35.2 µM (inactive) | 26.9 µM (inactive) | 12.7 µM (inactive) | 22.1 µM (inactive) |
| COc1cccc(Nc2nc(C)c([N+](=O)[O-])c(Nc3cccc(OC)c3)n2)c1 | 19.4 µM (inactive) | – | 13.9 µM (inactive) | 6.08 µM (inactive) | 12.6 µM (inactive) | 49.7 µM (inactive) | 16.2 µM (inactive) | 3.95 µM (inactive) | 12.9 µM (inactive) | – | > 100 µM (inactive) | 5.74 µM (inactive) | 12.4 µM (inactive) | 5.06 µM (inactive) | 29 µM (inactive) | 39.5 µM (inactive) | 54.3 µM (inactive) | 0.313 µM (active) | 2.05 µM (inactive) | 5.75 µM (inactive) |
| CO[C@@H](C(=O)OC1C=CC2(CC1)C(=O)N(C)c1ccccc12)c1ccccc1 (some centres undefined) | > 100 µM (inactive) | > 100 µM (inactive) | 60 µM (inactive) | > 100 µM (inactive) | 65.8 µM (inactive) | > 100 µM (inactive) | 76.6 µM (inactive) | > 100 µM (inactive) | > 100 µM (inactive) | 70.3 µM (inactive) | > 100 µM (inactive) | > 100 µM (inactive) | > 100 µM (inactive) | 50.6 µM (inactive) | – | > 100 µM (inactive) | > 100 µM (inactive) | > 100 µM (inactive) | 44.2 µM (inactive) | > 100 µM (inactive) |
| CC(=O)Nc1ccc(-c2cc(C(=O)O)c3cc4ccccc4cc3n2)cc1 | > 100 µM (inactive) | – | > 100 µM (inactive) | > 100 µM (inactive) | > 100 µM (inactive) | > 100 µM (inactive) | > 100 µM (inactive) | > 100 µM (inactive) | > 100 µM (inactive) | > 100 µM (inactive) | > 100 µM (inactive) | > 100 µM (inactive) | > 100 µM (inactive) | > 100 µM (inactive) | > 100 µM (inactive) | > 100 µM (inactive) | > 100 µM (inactive) | > 100 µM (inactive) | > 100 µM (inactive) | > 100 µM (inactive) |
| COC(=O)/C=C(/C(=O)OC)c1c(C)c(C)c2c(C)cc(C)cc(C)c1-2 | 20 µM (inactive) | > 100 µM (inactive) | 29.4 µM (inactive) | 21.2 µM (inactive) | 11.6 µM (inactive) | 18.1 µM (inactive) | 23.8 µM (inactive) | 29 µM (inactive) | 22.1 µM (inactive) | 76.2 µM (inactive) | 19.1 µM (inactive) | 46.3 µM (inactive) | 28.8 µM (inactive) | > 100 µM (inactive) | 29.4 µM (inactive) | 33.1 µM (inactive) | 38.8 µM (inactive) | – | 80.9 µM (inactive) | 8.39 µM (inactive) |
| CC[C@@]12CCCN3CC[C@]4(c5cccc(OC)c5N(C(C)=O)[C@@H]4CC1)[C@H]32 [ASPIDOSPERMINE] | > 100 µM (inactive) | 26.2 µM (inactive) | > 100 µM (inactive) | 35.6 µM (inactive) | 21 µM (inactive) | > 100 µM (inactive) | > 100 µM (inactive) | 54.3 µM (inactive) | > 100 µM (inactive) | 92.9 µM (inactive) | > 100 µM (inactive) | > 100 µM (inactive) | 43 µM (inactive) | 38.2 µM (inactive) | 78.5 µM (inactive) | 80.2 µM (inactive) | > 100 µM (inactive) | – | > 100 µM (inactive) | > 100 µM (inactive) |
| COC(=O)c1ccccc1Nc1nc(-c2cccs2)nc2cc(OC)c(OC)cc12 | 47.8 µM (inactive) | – | 45.4 µM (inactive) | 44.5 µM (inactive) | > 100 µM (inactive) | 28.9 µM (inactive) | 17.4 µM (inactive) | 58.6 µM (inactive) | 40.2 µM (inactive) | 40.6 µM (inactive) | 36.2 µM (inactive) | 15.2 µM (inactive) | 52.2 µM (inactive) | 49.8 µM (inactive) | 27.4 µM (inactive) | > 100 µM (inactive) | 48.5 µM (inactive) | 75.3 µM (inactive) | 37 µM (inactive) | 52.6 µM (inactive) |
| O=C(O)COc1cccc2ccccc(=O)c12 | > 100 µM (inactive) | > 100 µM (inactive) | > 100 µM (inactive) | > 100 µM (inactive) | > 100 µM (inactive) | > 100 µM (inactive) | > 100 µM (inactive) | > 100 µM (inactive) | > 100 µM (inactive) | > 100 µM (inactive) | > 100 µM (inactive) | > 100 µM (inactive) | > 100 µM (inactive) | – | > 100 µM (inactive) | > 100 µM (inactive) | > 100 µM (inactive) | 0.0126 µM (active) | > 100 µM (inactive) | > 100 µM (inactive) |
